Key:
influenza virus [1] = format: in vivo, mice
influenza virus [2] = system: influenza virus; design: species or system mice (C57BL/6N or BALB/c); conditions: mouse, in vivo
[3] = system: A549 cells infected with influenza A virus; format: cell-based, human; conditions: for decrease of the SOD1 protein during viral infection: A549 cells treated in vitro with inhibitor of autophagy or endoplasmic reticulum stress

CC(=O)N[C@@H](CS)C(=O)O [NAC, N-acetylcysteine]
body weight (survivability) (influenza virus [1]; […], SOD1 50 units/mouse, NAC 1 mg/mouse, 4-PBA 2.5 mg/mouse, catalase 50 units/mouse): significant difference in body weight

SOD1: superoxide dismutase 1, ROS scavenger; human SOD1 gene expressed in bacteria from pET-SOD1
body weight decrease (influenza virus [1]; mouse, in vivo): slightly inhibited
amount of ROS in the bronchoalveolar lavage fluid (influenza virus [2]): decreased
amount of SOD1 in lung tissue (influenza virus [2]): recovered to a level close to that before the infection

CCN(CC)CCCC(C)Nc1ccnc2cc(Cl)ccc12 (stereo not drawn) [chloroquine]
amount of SOD1 protein [3]: more distinct than that of 3-MA
decrease of the SOD1 protein during viral infection [3]: reduced significantly

O=C(O)CCCc1ccccc1 [4-PBA, 4-phenylbutyrate]
production of ROS compared to non-administration group (influenza virus [2]): decreased significantly
decrease of the SOD1 protein during viral infection [3]: reduced significantly

Cn1cnc(N)c2ncnc1-2 [3-MA, 3-methyladenine]
LC3 conversion [3]: decreased
amount of SOD1 protein [3]: increase
expression of viral protein PB1 [3]: decreased expression
decrease of the SOD1 protein during viral infection [3]: reduced significantly

Source: patent publication US12496332B2 (priority 2019, dated 2025)
